Results on 4 substances are retold here after patent US8426179B2, “Synthetic peptide and peptide conjugates and related tissue coupling methods via transglutaminase enzyme” (priority 2007, dated 2013).

No end group written: not given here.

A short description of data set [1]: Hydrolysis of the hydrocortisone prodrugs in solution (buffers). It is filed as physicochemical. As to conditions: Buffer 1, 4° C. The procedure:
This solution also contained 2 mM 6α-methyl prednisolone as an internal standard. The samples were then stored at −20° C. until analyzed with RP-HPLC and eluted with a linear gradient of 24-55% acetonitrile in water with 0.1% TFA. The amount of hydrocortisone hydrolyzed from the prodrug was determined by comparing its peak area to that of 6α-methyl prednisolone. […] Thirty microliter samples were collected at 10, 20, 30, and 60 minutes and analyzed as previously described.

The test system of data set [2] is articular surface of cartilage. In words: Coupling of hydrocortisone prodrugs to the articular surface of cartilage via tTG. It is filed as biochemical, bovine. The note with it: 1.0 mM prodrug with tTG, immunohistochemistry and quantification.
Procedure: Modified tissue samples were immersed in tissue freezing media and frozen at −80° C. until use. Tissue slices (25 μm thick) were cut using a cryostat (Microm HM505N, Carl Zeiss) and the freezing media was removed with 3 washes of Buffer 1. Blocking was performed with 4% goat serum in Buffer 1 (blocking buffer) for 1 hour at room temperature. The tissue sections were then incubated with 10 μg/mL mouse anti-hydrocortisone antibody for 1.5 h in the blocking buffer at room temperature, rinsed 3 times with Buffer 1 for 5 minutes each, and then incubated with fluorescein conjugated goat anti-mouse antibody (1/200) in blocking buffer for 1 hour. Samples were rinsed again with Buffer 1 and then imaged using a Leica epifluorescent microscope (λex=495 nm, λem=520 nm for fluorescein) and a SPOT RT digital camera (Diagnostic Instruments, Sterling Heights, Mich.).
Data set [3] deals with Fresh articular cartilage. The note with it: in the presence of enzyme.
The target of a further data set is T1, tTG (UniProt P08587).
T1 sequence (P08587 1-690): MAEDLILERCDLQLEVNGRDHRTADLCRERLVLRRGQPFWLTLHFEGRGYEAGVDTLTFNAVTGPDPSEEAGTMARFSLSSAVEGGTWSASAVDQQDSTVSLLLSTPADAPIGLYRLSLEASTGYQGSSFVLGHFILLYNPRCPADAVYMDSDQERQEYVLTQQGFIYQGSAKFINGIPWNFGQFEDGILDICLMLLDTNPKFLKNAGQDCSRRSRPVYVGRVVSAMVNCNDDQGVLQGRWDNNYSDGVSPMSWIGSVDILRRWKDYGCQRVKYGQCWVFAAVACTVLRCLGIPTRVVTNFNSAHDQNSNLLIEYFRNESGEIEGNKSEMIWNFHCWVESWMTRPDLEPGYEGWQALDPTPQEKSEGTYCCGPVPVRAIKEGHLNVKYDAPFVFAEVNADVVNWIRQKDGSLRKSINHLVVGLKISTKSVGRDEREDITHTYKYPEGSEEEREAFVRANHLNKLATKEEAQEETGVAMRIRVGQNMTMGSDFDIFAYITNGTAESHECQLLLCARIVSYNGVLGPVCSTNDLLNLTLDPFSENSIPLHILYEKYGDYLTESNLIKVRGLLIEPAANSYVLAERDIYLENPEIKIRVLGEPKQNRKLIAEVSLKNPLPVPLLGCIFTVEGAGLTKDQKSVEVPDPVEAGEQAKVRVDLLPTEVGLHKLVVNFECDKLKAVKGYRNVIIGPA
As to conditions: reactivity with the enzyme (tTG); cited from earlier work.

The next data set concerns cartilage sections. As to the kind of experiment: Coupling of peptide conjugates to cartilage sections via tTG, fluorescein anti-biotin staining. It is filed as biochemical, bovine. As to conditions: in the presence of tTG, 50 μM conjugate, 0.5 U/mL tTG, 30 min at 37° C. The procedure: Partial depolymerization of glycosaminoglycans in the tissue was accomplished by digesting with chondroitinase ABC at 40 mU/mL in 50 mM Tris, 70 mM sodium acetate and 0.01% bovine serum albumin (BSA) at pH 8 for 30 minutes at 37° C. Samples were then rinsed 3 times with TBS and blocked with 1% BSA in TBS for one hour at room temperature. The tTG reaction conditions used were similar to a previously described method. (See, Aeschlimann D, Wetterwald A, Fleisch H, and Paulsson M. Expression of tissue transglutaminase in skeletal tissues correlates with events of terminal differentiation of chondrocytes. Journal of Cell Biology 1993; 120: 1461-1470.) The cartilage sections were incubated in 500 μL of 50 μM peptide or peptide-PEG conjugate, 0.5 U/mL tTG, 5 mM CaCl2, 2.5 mM dithiothreitol and 100 mM Tris, at pH 8.3 for 30 min at 37° C. Control experiments were performed in the absence of tTG. After completion of the tTG reaction, the solution was removed and samples were rinsed 3 times with 1% BSA in TBS for 5 minutes each. The cartilage sections were then incubated with fluorescein conjugated anti-biotin antibody at 10 μg/mL in 1% BSA in TBS for 2 hours at room temperature. Samples were rinsed 4 times with TBS for 5 minutes each, followed by blocking with 10% donkey serum for 1 hour and incubation with rabbit anti-collagen II antibody in TBS containing 10% donkey serum for 1 hour. The samples were rinsed 3 times with 10% donkey serum in TBS and then incubated with Texas Red conjugated donkey anti-rabbit antibody. Samples were rinsed again with TBS and then imaged using a Leica epifluorescent microscope (λex=495 nm, λem=520 for fluorescein and λex=596 nm, λem=620 for Texas Red) and a SPOT RT digital camera (Diagnostic Instruments, Sterling Heights, Mich.).
Images were analyzed using Metamorph image analysis software (Molecular Devices, Sunnyvale, Calif.). Fluorescein fluorescence was measured at three randomly selected areas of the middle zone on each cartilage section image and then averaged. A similar procedure was utilized to determine Texas Red fluorescence. The fluorescein fluorescence intensity was then normalized to the fluorescence of the Texas Red for each cartilage section image in order to account for potential ECM differences between sections. Finally, the average green fluorescence for each peptide-PEG conjugate was then normalized by dividing by the red fluorescence.

hydrocortisone-GFKG-PEG [TRIP-PC]: in data set [1], the T50% of hydrolysis worked out at 57.8 h. The “bound hydrocortisone, TRIP-C compared with TRIP-PC” value in data set [2] is given as “no detectable difference in bound hydrocortisone”. On to Biotin-FKG-HA, for which the “anti-biotin antibody staining of tissue surface” value in data set [3] is recorded as “intense staining”. “GQQQLG (GQQQLG-NH2) [glutamine (acyl donor) peptide substrate of tTG]”: the specificity in the data set with tTG was 34.1 mM⁻¹ min⁻¹. The “coupling to cartilage (anti-biotin fluorescence)” value in the data set with cartilage sections is “bind to cartilage surfaces via tTG”. Consider FKG, for which, at tTG, the specificity was 560 mM⁻¹ min⁻¹. Moreover, in the data set on cartilage sections, the “coupling to cartilage (anti-biotin fluorescence)” value is “bind to cartilage surfaces via tTG”.
